# Measured values reported in patent US20260078119A1, “DEGRADER COMPOUNDS AND USES THEREOF” (Bristol-Myers Squibb Company, priority 2024, published 2026).
# Key:
# FAK = biological target: T1, FAK (Homo sapiens, UniProt Q05397); assay: FAK-HiBiT Degradation Assay; assay type: cell-based; conditions: for DC50: JHH-4-FAK-HiBiT clone d01 cells, two hours incubation, 10-point dose response, 3-fold dilution starting at 1 μM, Nano-Glo HiBiT luminescence, read-out: FAK HiBiT EC50; for FAK HiBiT Ymin: lower limit of the four parameter fit (value A), Ymax derived using DMSO control, JHH-4-FAK-HiBiT cells, two hours
# T1 construct: homozygous knock-in of a HiBiT tag (Promega Corporation, Madison, WI) to the C-terminus of the FAK gene in its natural genomic locus; endogenous in cells; host or cells: JHH-4-FAK-HiBiT clone d01 (CRISPR-Cas9 knock-in at the endogenous locus)
# Method in brief: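 JHH-4 cells with homozygous CRISPR knock-in of C-terminal HiBiT on endogenous FAK, treated 2 h at 37 °C with compounds in 10-point 3-fold series from 1 μM. HiBiT lytic luminescence read; EC50 from four-parameter logistic fit, Ymax set by DMSO control, Ymin as lower fit limit.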
# CAL-51 cells = assay: CAL-51 Cell Proliferation Assay; assay type: cell-based; conditions: for EC50: Homo sapiens, 120 hours incubation, 10-point dose response, 4-fold dilutions starting at 10 μM, Cell-Titer-Glo, read-out: CAL-51 Prolif EC50; for CAL-51 Prolif Ymin: minimal percent of DMSO control observed in the concentrations tested (Ymin-obs), 120 hours
# Method in brief: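 Cells seeded at 350/well in RPMI complete medium onto 10-point, 4-fold compound dilutions from 10 μM (0.1% DMSO), in duplicate, and grown 120 h at 37 °C. CellTiter-Glo luminescence, blank-subtracted and normalised to DMSO, was fitted with a four-parameter logistic to give EC50; Ymin-obs is the lowest observed percent of DMSO control.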
# T1 sequence (Q05397 whole entry): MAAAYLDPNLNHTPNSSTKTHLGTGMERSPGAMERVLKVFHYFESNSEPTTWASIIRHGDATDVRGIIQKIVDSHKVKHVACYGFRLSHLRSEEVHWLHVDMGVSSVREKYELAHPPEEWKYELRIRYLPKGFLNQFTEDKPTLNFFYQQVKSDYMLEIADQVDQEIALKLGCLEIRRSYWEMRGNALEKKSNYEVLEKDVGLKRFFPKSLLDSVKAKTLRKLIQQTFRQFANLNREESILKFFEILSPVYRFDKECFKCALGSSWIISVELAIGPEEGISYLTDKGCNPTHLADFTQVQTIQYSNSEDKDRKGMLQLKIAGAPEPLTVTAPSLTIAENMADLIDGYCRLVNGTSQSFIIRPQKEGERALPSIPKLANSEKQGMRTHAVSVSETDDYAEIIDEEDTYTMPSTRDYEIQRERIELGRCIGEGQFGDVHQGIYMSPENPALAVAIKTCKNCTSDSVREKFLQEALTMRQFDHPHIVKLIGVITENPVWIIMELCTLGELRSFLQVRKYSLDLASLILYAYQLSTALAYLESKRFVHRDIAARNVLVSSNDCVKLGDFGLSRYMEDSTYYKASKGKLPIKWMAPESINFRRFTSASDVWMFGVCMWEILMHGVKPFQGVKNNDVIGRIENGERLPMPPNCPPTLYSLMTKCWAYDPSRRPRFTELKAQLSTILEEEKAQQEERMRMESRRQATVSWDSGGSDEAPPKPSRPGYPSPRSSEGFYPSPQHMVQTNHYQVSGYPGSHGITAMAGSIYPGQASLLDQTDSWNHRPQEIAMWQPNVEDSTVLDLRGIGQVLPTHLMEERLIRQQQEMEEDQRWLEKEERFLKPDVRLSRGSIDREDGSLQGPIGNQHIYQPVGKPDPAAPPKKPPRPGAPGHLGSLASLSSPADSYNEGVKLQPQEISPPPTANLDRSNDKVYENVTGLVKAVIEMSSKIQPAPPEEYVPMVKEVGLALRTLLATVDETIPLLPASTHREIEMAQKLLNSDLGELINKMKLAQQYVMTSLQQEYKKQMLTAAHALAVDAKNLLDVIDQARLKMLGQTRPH
SMILES,DC50 (FAK) [nM],FAK HiBiT Ymin (FAK),EC50 (CAL-51 cells) [nM],CAL-51 Prolif Ymin (CAL-51 cells)
"O=C1CCC(N2Cc3cc(Cn4ncc5c(-c6ncc(C(F)F)cc6Cl)cc(N6CC(F)C6)nc54)ccc3C2=O)C(=O)N1 (centres unmarked) [Example 43, 3-[5-({4-[3-chloro-5-(difluoromethyl)pyridin-2-yl]-6-(3-fluoroazetidin-1-yl)-1H-pyrazolo[3,4-b]pyridin-1-yl}methyl)-1-oxo-2,3-dihydro-1H-isoindol-2-yl]piperidine-2,6-dione]",1.59,6.11,155,51.95
"COc1cc(C2CC2)cnc1-c1cc(N2CC(F)C2)nc2c1cnn2Cc1ccc2c(c1)CN(C1CCC(=O)NC1=O)C2=O (centres unmarked) [Example 135, 3-(5-{[4-(5-cyclopropyl-3-methoxypyridin-2-yl)-6-(3-fluoroazetidin-1-yl)-1H-pyrazolo[3,4-b]pyridin-1-yl]methyl}-1-oxo-2,3-dihydro-1H-isoindol-2-yl)piperidine-2,6-dione]",≥ 1000,87.67,≥ 10000,84.14
"O=C1CCC(N2Cc3cc(Cn4ncc5c(-c6ncc(OCC(F)(F)F)cc6Cl)cc(N6CC(F)C6)nc54)ccc3C2=O)C(=O)N1 (centres unmarked) [Example 59, 3-[5-({4-[3-chloro-5-(2,2,2-trifluoroethoxy)pyridin-2-yl]-6-(3-fluoroazetidin-1-yl)-1H-pyrazolo[3,4-b]pyridin-1-yl}methyl)-1-oxo-2,3-dihydro-1H-isoindol-2-yl]piperidine-2,6-dione]",3.54,10.50,0.87,28.60
"O=C1CC[C@H](N2Cc3cc(Cn4ncc5c(-c6ncc(F)cc6Cl)cc(N6CC(F)C6)nc54)ccc3C2=O)C(=O)N1 [Example 51, (3S)-3-(5-{[4-(3-chloro-5-fluoropyridin-2-yl)-6-(3-fluoroazetidin-1-yl)-1H-pyrazolo[3,4-b]pyridin-1-yl]methyl}-1-oxo-2,3-dihydro-1H-isoindol-2-yl)piperidine-2,6-dione]",2.23,10.32,1.49,30.14
"O=C1CCC(N2Cc3cc(Cn4ncc5c(-c6nnccc6C(F)(F)F)cc(N6CC(F)C6)nc54)ccc3C2=O)C(=O)N1 (centres unmarked) [Example 129, 3-(5-{[6-(3-fluoroazetidin-1-yl)-4-[4-(trifluoromethyl)pyridazin-3-yl]-1H-pyrazolo[3,4-b]pyridin-1-yl]methyl}-1-oxo-2,3-dihydro-1H-isoindol-2-yl)piperidine-2,6-dione]",≥ 1000,95.34,499,92.49
"CN(c1cc(-c2ncc(C(F)(F)F)cc2Cl)c2cnn(Cc3ccc4c(c3)CN([C@H]3CCC(=O)NC3=O)C4=O)c2n1)[C@H]1C[C@](C)(O)C1 [Example 107, (3S)-3-[5-({4-[3-chloro-5-(trifluoromethyl)pyridin-2-yl]-6-{methyl[(1s,3r)-3-hydroxy-3-methylcyclobutyl]amino}-1H-pyrazolo[3,4-b]pyridin-1-yl}methyl)-1-oxo-2,3-dihydro-1H-isoindol-2-yl]piperidine-2,6-dione]",38.3,18.14,8.44,44.59
"O=C1CC[C@H](N2Cc3cc(Cn4ncc5c(-c6ncc(C(F)(F)F)cc6Cl)cc(NCCF)nc54)ccc3C2=O)C(=O)N1 [Example 146, (S)-3-(5-((4-(3-chloro-5-(trifluoromethyl)pyridin-2-yl)-6-((2-fluoroethyl)amino)-1H-pyrazolo[3,4-b]pyridin-1-yl)methyl)-1-oxoisoindolin-2-yl)piperidine-2,6-dione]",13.1,22.43,9.4,57.23
"Cc1cnc(-c2cc(N3CC(F)C3)nc3c2cnn3Cc2ccc3c(c2)CN(C2CCC(=O)NC2=O)C3=O)c(Cl)c1 (centres unmarked) [Example 57, 3-(5-{[4-(3-chloro-5-methylpyridin-2-yl)-6-(3-fluoroazetidin-1-yl)-1H-pyrazolo[3,4-b]pyridin-1-yl]methyl}-1-oxo-2,3-dihydro-1H-isoindol-2-yl)piperidine-2,6-dione]",3.41,8.26,1.51,25.51
"O=C1CCC(N2Cc3cc(Cn4ncc5c(-c6ncc(F)cc6Cl)cc(N6CC[C@H](O)C6)nc54)ccc3C2=O)C(=O)N1 (stereo partly drawn) [Example 100, 3-(5-{[4-(3-chloro-5-fluoropyridin-2-yl)-6-[(3S)-3-hydroxypyrrolidin-1-yl]-1H-pyrazolo[3,4-b]pyridin-1-yl]methyl}-1-oxo-2,3-dihydro-1H-isoindol-2-yl)piperidine-2,6-dione]",26.8,9.53,13.4,29.27

# Now those with a lower DC50 (FAK), led by results:
DC50 (FAK) [nM],FAK HiBiT Ymin (FAK),SMILES,EC50 (CAL-51 cells) [nM],CAL-51 Prolif Ymin (CAL-51 cells)
0.71,8.83,"Cc1cc(C(F)(F)F)cnc1-c1cc(N2CC(F)C2)nc2c1cnn2Cc1ccc2c(c1)CN(C1CCC(=O)NC1=O)C2=O (centres unmarked) [Example 29, 3-(5-{[6-(3-fluoroazetidin-1-yl)-4-[3-methyl-5-(trifluoromethyl)pyridin-2-yl]-1H-pyrazolo[3,4-b]pyridin-1-yl]methyl}-1-oxo-2,3-dihydro-1H-isoindol-2-yl)piperidine-2,6-dione]",1.23,30.94
0.91,5.36,"O=C1CCC(N2Cc3cc(Cn4ncc5c(-c6ncc(C(F)(F)F)cc6Cl)cc(N6CC(F)C6)nc54)cc(F)c3C2=O)C(=O)N1 (centres unmarked) [Example 33, 3-[5-({4-[3-chloro-5-(trifluoromethyl)pyridin-2-yl]-6-(3-fluoroazetidin-1-yl)-1H-pyrazolo[3,4-b]pyridin-1-yl}methyl)-7-fluoro-1-oxo-2,3-dihydro-1H-isoindol-2-yl]piperidine-2,6-dione]",0.51,26.78
1.54,9.84,"Cc1nc2c(-c3ncc(C(F)(F)F)cc3Cl)cc(N3CC(F)C3)nc2n1Cc1ccc2c(c1)CN(C1CCC(=O)NC1=O)C2=O (centres unmarked) [Example 21, 3-(5-((7-(3-chloro-5-(trifluoromethyl)pyridin-2-yl)-5-(3-fluoroazetidin-1-yl)-2-methyl-3H-imidazo[4,5-b]pyridin-3-yl)methyl)-1-oxoisoindolin-2-yl)piperidine-2,6-dione]",0.91,23.08
0.38,7.63,"O=C1CC[C@H](N2Cc3cc(Cn4ccc5c(-c6ncc(C(F)(F)F)cc6Cl)nc(N6CC(F)C6)nc54)ccc3C2=O)C(=O)N1 [Example 28, (S)-3-(5-((4-(3-chloro-5-(trifluoromethyl)pyridin-2-yl)-2-(3-fluoroazetidin-1-yl)-7H-pyrrolo[2,3-d]pyrimidin-7-yl)methyl)-1-oxoisoindolin-2-yl)piperidine-2,6-dione]",0.45,25.69
0.5,8.05,"O=C1CC[C@H](N2Cc3cc(Cn4ncc5c(-c6ncc(C(F)(F)F)cc6Cl)cc(N6CC(F)C6)nc54)ccc3C2=O)C(=O)N1 [Example 6, (3S)-3-[5-({4-[3-chloro-5-(trifluoromethyl)pyridin-2-yl]-6-(3-fluoroazetidin-1-yl)-1H-pyrazolo[3,4-b]pyridin-1-yl}methyl)-1-oxo-2,3-dihydro-1H-isoindol-2-yl]piperidine-2,6-dione]",0.4,31.07
